Here are results for 2 compounds from patent publication US20180280370A1, “DOSAGE REGIMEN FOR A PHOSPHATIDYLINOSITOL 3-KINASE INHIBITOR” (Novartis AG, priority 2015, published 2018).

Like-named read-outs stand apart in the source and are kept apart here.

Data set [1] is described as follows: Continuous blood glucose measurement via radio-telemetry in conscious freely moving rats. It counts as in vivo, Brown Norway rats. The note with it: for normalization of blood glucose in between 2 doses: steady state. The protocol:
Animals and maintenance conditions: Experiments were performed in female nude Rowett rats Hsd: RH-Fox1rnu or female Brown-Norway (BN) rats (Harlan (The Netherlands). Animals were 6-9 weeks of age at time of application of the compound. Animals were housed under Optimized Hygienic Conditions in Makrolon type III cages (max. 2 animals per cage) with free access to food and water. They were allowed to adapt for at least 6 days before the experiment was started.
Compound A was prepared for dosing as homogenous suspensions in 1% carboxymethyl cellulose: 0.5% Tween® 80: 98.5% deionized water. Fresh suspensions were prepared once every 7 days and stored at 4° C. Compound A or vehicle was administered orally at a volume of 10 mL/kg.
Blood Glucose Measurements Via Radio-Telemetry Technology (HD-XG Radio Telemetry Transmitter; Data Sciences International):
Blood glucose levels were measured continuously in conscious non-restrained freely moving rats by the method described in Brockway et al., Journal of Diabetes Science and Technology., 9(4):771-81 (2015), which is incorporated herein by reference in its entirety. Briefly, the 1.4 cc telemetry device provides direct continuous blood glucose readings along with temperature and activity for 4 weeks or longer. The device was used in non-tumor bearing Brown Norway (BN) rats. Each animal was surgically instrumented with glucose sensors in the abdominal aorta and the device placed in the intraperitoneal cavity. Continuous glucose readings were recorded with the Dataquest A.R.T. data acquisition system. Reference glucose values were measured from tail vein blood samples using the Nova StatStrip glucometer twice per week. Each animal was measured in cyclic runs of 1 minute for 10 seconds with a sampling rate of 1 Hz. Mean values for blood glucose levels, body temperature and motor activity were then computed and stored. Fifteen minutes or hourly averages were determined using the interval averaging routine on the Dataquest Analysis Software (Dataquest A.R.T, version 4.36; Data Sciences). Blood glucose values are expressed in mmol/L, body temperature in degree Celsius (° C.) and motor activity in number of movements (units) per minute.
(§1) Absolute values for primary tumor growth and body weight were used to make the statistical comparisons between groups (one way ANOVA followed by Dunnett's test for normally distributed data; ANOVA on Ranks for not normally distributed data followed by Dunnett's test for equal group size or Dunn's for unequal group size). Absolute values for blood glucose (calculated mean over 6 hours' time periods) and PK data were used to make the statistical comparisons between groups (two-tailed Student's t-tests). The significant level was set at p<0.05. All statistical calculations were carried out using SigmaStat.

Data set [2] can be described thus: Plasma PK after oral administration in freely moving catheterized rats with automated blood sampling. As to conditions: day 1 or 4 (steady state), 50 mg/kg p.o. qd; 2, 4, 6, 8, 10, 12, 18 and 24h post treatment. It counts as in vivo, Brown Norway rats.
Text: Determination of Pharmacokinetic (PK) Parameters after Oral Administration of Compound A in Freely Moving Catheterized Rats Using Automated Blood Sampling (ABS) Technology:
The highly automated ABS system (Instech ABS2™) allows for unattended blood sample collection via an in-dwelling venous catheter placed in the jugular or femoral vein. For all animals, cannulas were filled with 1:1 heparin glycerol solution when not on study. The ABS freely-moving system is a well-recognized method to reduce stress during blood sampling and it only marginally impedes the animal in its freedom to move, drink, eat and sleep. Furthermore, this method allows obtaining pharmacokinetic parameters at night time (active phase of the animal).
as §1

Data set [3] has as its system Rat1-myr-p110α subcutaneous xenografts. As to the kind of experiment: Antitumor efficacy in Rat1-myr-p110α tumor bearing nude rats. It counts as in vivo. The note with it: for body weight changes, 10 A.M. vs 5 p.m. dosing / tumor volume inhibition, 10 A.M. (ALTERNATIVE SCHEDULE 1) vs 5 p.m. dosing: 14 consecutive days. The procedure: Animals and maintenance conditions: Experiments were performed in female nude Rowett rats Hsd: RH-Fox1rnu or female Brown-Norway (BN) rats (Harlan (The Netherlands). Animals were 6-9 weeks of age at time of application of the compound. Animals were housed under Optimized Hygienic Conditions in Makrolon type III cages (max. 2 animals per cage) with free access to food and water. They were allowed to adapt for at least 6 days before the experiment was started. Cell line and cell culture: Rat1-Myr-p110α cells were grown in Dulbecco's Modified Eagle Medium (DMEM) culture medium containing 4.5 g/l glucose supplemented with 10% heat-inactivated fetal calf serum (FCS), 2 mM L-glutamine, 1 mM sodium pyruvate and incubated at 37° C. in a 5% CO2 humidified atmosphere. Cells were harvested with trypsin-EDTA, re-suspended in culture medium (with additives) and counted with a Casy® system. Finally, cells were centrifuged, suspended in ice-cold Hanks' balanced salt solution (HBSS) at a concentration of 3×10^7 cells/ml. Cell culture reagents were purchased from BioConcept (Allschwil, Switzerland). Rat1-myr-p110α cells were generated by the method described in Maira et al., Molecular Cancer Therapeutics, 11:317-328 (2012), which is incorporated herein by reference in its entirety. Briefly, Rat1 cells were transfected to stably express the constitutively active form of the catalytic PI3K class I p110 isoforms a by addition of a myristylation signal to the N-terminus. Rat1-Myr-p110α tumors were established by subcutaneous injection of […] in 100 μL HBSS (Sigma #H8264) into the right flank of nude rats. For the efficacy experiments, treatments were initiated when the mean tumor volumes were approx. 900-1200 mm^3 (21 to 23 days post tumor cells injection). Compound A was prepared for dosing as homogenous suspensions in 1% carboxymethyl cellulose: 0.5% Tween® 80: 98.5% deionized water. Fresh suspensions were prepared once every 7 days and stored at 4° C. Compound A or vehicle was administered orally at a volume of 10 mL/kg. Tumor volumes were measured with calipers and determined according to the formula: length×diameter^2×π/6. In addition to presenting changes of tumor volumes over the course of treatments, antitumor activity is expressed as T/C % (mean change of tumor volume of treated animals/mean change of tumor volume of control animals)×100. Regressions (%) were calculated according to the formula ((mean tumor volume at end of treatment−mean tumor volume at start of treatment)/mean tumor volume at start of treatment)×100. Body weights and tumor volumes were recorded two to three times a week. Absolute values for primary tumor growth and body weight were used to make the statistical comparisons between groups (one way ANOVA followed by Dunnett's test for normally distributed data; ANOVA on Ranks for not normally distributed data followed by Dunnett's test for equal group size or Dunn's for unequal group size). Absolute values for blood glucose (calculated mean over 6 hours' time periods) and PK data were used to make the statistical comparisons between groups (two-tailed Student's t-tests). The significant level was set at p<0.05. All statistical calculations were carried out using SigmaStat.

For data set [4], the system named is advanced solid malignancies carrying an alteration in the PIK3CA gene. The note with it: cited from earlier work.
The next data set has as its system advanced solid tumors. The note with it: cited from earlier work.
Where [5] appears, read: daily administration, human patients.

On to `Cc1nc(NC(=O)N2CCC[C@H]2C(N)=O)sc1-c1ccnc(C(C)(C)C(F)(F)F)c1` [Compound A, (S)-Pyrrolidine-1,2-dicarboxylic acid 2-amide 1-({4-methyl-5-[2-(2,2,2-trifluoro-1,1-dimethyl-ethyl)-pyridin-4-yl]-thiazol-2-yl}-amide)], for which the “normalization of blood glucose in between 2 doses” value in data set [1] (50 mg/kg p.o. qd, dosing before the active phase (5 p.m.)) is “could not be achieved”; in data set [1] (50 mg/kg p.o. qd, dosing before the inactive phase (10 a.m.)), “allowed blood glucose to normalize in between 2 doses”. The “change in glucose level” value in data set [1] (50 mg/kg p.o. qd, steady state (Day 4), n=6) is on record as “transient glucose level increase”. Also, the “effect on blood glucose levels” value in data set [1] (day 1 of treatment, 50 mg/kg p.o. qd dosed at 5 PM (active phase)) is “slight hyperglycemia”; in data set [1] (day 1 of treatment, 50 mg/kg p.o. qd dosed at 10 AM (inactive phase)) it was “slight hyperglycemia”; in data set [1] (steady state (Day 4-5 of daily treatment), 50 mg/kg p.o. qd) it was “transient hyperglycemia profile”. The “period of remaining transient hyperglycemia after treatment discontinuation” value in data set [1] (recovery day 1, group dosed before the active phase (5 p.m.), 50 mg/kg p.o. qd) is reported as “up to 12 h”. Besides, the “blood glucose after treatment discontinuation” value in data set [1] (start of recovery day 1, group dosed before the inactive phase (10 a.m.), 50 mg/kg p.o. qd) was “already normalized to baseline levels”. In addition, in data set [2], the “plasma PK profile, 10 AM vs 5 PM dosing” value was “did not revealed any significant differences”. In addition, the anti-tumor efficacy result in data set [3] (14 mg/kg p.o. qd, 2 weeks of treatment) is on record as “stasis”. Besides, the “body weight changes, 10 A.M. vs 5 p.m. dosing” value in data set [3] (14 mg/kg p.o. qd) and in data set [3] (25 mg/kg p.o. qd) was “very similar pattern” throughout. Further, the “tumor volume inhibition, 10 A.M. (ALTERNATIVE SCHEDULE 1) vs 5 p.m. dosing” value in data set [3] (14 mg/kg p.o. qd) and in data set [3] (25 mg/kg p.o. qd) was “No significant differences” in each case. The same compound yielded a tumor regression in data set [3] (25 mg/kg p.o. qd, 2 weeks of treatment) of 50%. Further, the “Disease control rate (complete response, partial response or stable disease)” value was 66.7% in data set [4] (150 mg/BID, 95% CI: 38.4-88.2) and 53.2% in data set [4] (400 mg/QD, 95% CI: 40.1-66.0). Moreover, the confirmed partial responses in data set [4] (150 mg/BID) is listed as 2 patients; in data set [4] (270 mg/QD), 2 patients; in data set [4] (350 mg/QD), 1 patients; in data set [4] (400 mg/QD), 2 patients; in data set [4] (all doses, of 132 evaluable patients), 7 patients. The MTD in data set [4] (QD, in patients) is 400 mg. Further, in data set [4] (setting [5]), the “patients with induced hyperglycemia” value is 49%. Besides, in data set [4] (of 132 evaluable patients, as of Mar. 10, 2014, oral 30-450 mg q.d. or 120-200 mg b.i.d.), the “partial responses to treatment” value is recorded as 15 patients.
On to `Nc1cc(C(F)(F)F)c(-c2cc(N3CCOCC3)nc(N3CCOCC3)n2)cn1` [Compound B, 4-(trifluoromethyl)-5-(2,6-dimorpholinopyrimidin-4-yl)pyridin-2-amine], for which the “patients with induced hyperglycemia” value in the data set with advanced solid tumors (setting [5]) is recorded as 31%. For the same compound, the unconfirmed partial responses result with advanced solid tumors (parotid gland carcinoma, epithelioid hemangiothelioma, ER+ breast cancer) is “three”. For the same compound, the confirmed partial response result in the data set on advanced solid tumors (triple-negative breast cancer, 83 patients enrolled) was “One”.
